Assay results from patent US10428080B2, “TBK/IKK inhibitor compounds and uses thereof” (Merck Patent GmbH, priority 2015, dated 2019).
Where a name gives a salt, the structure may show the parent alone.

What was measured:
[1] = target: T1, TBK1 (Homo sapiens, UniProt Q9UHD2); test: TBK Biochemical Assay; settings: read-out: TBK1 IC50
T1 sequence (Q9UHD2 1-729): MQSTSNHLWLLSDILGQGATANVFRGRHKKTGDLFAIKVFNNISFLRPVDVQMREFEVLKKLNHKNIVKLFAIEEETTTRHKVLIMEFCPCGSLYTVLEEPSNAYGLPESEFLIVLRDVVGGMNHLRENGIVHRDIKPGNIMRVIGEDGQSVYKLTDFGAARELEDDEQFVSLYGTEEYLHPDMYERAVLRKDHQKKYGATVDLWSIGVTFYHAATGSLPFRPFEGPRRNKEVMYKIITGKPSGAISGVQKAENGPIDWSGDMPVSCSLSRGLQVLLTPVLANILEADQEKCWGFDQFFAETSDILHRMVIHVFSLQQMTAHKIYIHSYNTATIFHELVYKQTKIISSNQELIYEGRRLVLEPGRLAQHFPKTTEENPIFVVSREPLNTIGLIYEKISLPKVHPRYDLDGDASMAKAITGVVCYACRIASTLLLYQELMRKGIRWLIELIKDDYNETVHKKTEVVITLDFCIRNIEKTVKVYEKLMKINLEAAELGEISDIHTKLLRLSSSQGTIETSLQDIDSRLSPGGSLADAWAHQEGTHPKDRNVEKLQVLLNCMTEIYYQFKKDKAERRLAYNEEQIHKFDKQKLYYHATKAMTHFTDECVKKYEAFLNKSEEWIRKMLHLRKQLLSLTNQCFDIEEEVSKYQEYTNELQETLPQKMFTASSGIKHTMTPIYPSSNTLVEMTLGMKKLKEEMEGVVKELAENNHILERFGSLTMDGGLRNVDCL
How it was run: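 Caliper LabChip mobility-shift readout of substrate and product after 90 min of TBK1 reaction at 25° C and stop-buffer addition. Compounds tested in 1:4 serial dilution over 10 points from 30 uM final at 1% DMSO; staurosporine 10 uM final defines full inhibition.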

[2] = target: T2, IKKε (Homo sapiens, UniProt Q14164); test: IKKe Biochemical Assay; settings: read-out: IKKε IC50
T2 sequence (Q14164 1-716): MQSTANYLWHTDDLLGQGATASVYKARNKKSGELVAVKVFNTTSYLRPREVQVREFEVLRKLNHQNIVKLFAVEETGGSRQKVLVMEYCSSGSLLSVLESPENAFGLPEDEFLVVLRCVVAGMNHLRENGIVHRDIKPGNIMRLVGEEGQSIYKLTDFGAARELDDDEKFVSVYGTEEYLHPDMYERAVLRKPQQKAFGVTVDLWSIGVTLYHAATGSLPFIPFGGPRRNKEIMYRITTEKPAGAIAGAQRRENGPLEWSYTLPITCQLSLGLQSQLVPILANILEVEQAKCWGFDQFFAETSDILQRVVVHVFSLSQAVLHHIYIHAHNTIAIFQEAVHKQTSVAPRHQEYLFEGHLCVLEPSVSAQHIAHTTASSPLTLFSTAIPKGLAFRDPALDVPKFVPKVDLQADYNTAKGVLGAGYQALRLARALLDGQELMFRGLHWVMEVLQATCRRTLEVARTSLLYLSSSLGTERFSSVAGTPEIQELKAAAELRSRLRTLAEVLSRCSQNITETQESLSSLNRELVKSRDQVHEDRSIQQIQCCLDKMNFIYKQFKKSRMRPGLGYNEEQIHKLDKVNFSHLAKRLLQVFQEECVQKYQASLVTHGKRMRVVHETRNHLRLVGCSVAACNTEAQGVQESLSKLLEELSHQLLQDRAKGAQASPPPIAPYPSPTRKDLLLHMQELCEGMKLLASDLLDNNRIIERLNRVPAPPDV
How it was run: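 Activity was measured as mobility-shift separation of phosphorylated from unphosphorylated substrate on a LabChip EZ Reader. Compound was titrated from 30 uM final in 10 points, 1:4 steps, with 1% DMSO, and enzyme plus substrate reacted 90 min at 25° C before stop buffer. Control wells held 10 uM staurosporine.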

Compound	IC50 [1] [nM]	IC50 [2] [nM]
COc1cc(C(=O)N(C)C)cnc1-c1cc2ncc(OC)c(-c3ccc(NC4CCOCC4)c(C#N)c3)c2o1 [Compound 340, 6-(7-[3-cyano-4-[(oxan-4-yl)amino]phenyl]-6-methoxyfuro[3,2-b]pyridin-2-yl)-5-methoxy-N,N-dimethylpyridine-3-carboxamide]	100 to 1000	1000 to 5000
COc1cc(C(=O)N(C)CCO)cnc1-c1cc2ncc(C3CC3)c(-c3ccc(OC4CCOCC4)c(C#N)c3)c2o1 [Compound 341, 6-[7-[3-cyano-4-(oxan-4-yloxy)phenyl]-6-cyclopropylfuro[3,2-b]pyridin-2-yl]-N-(2-hydroxyethyl)-5-methoxy-N-methylpyridine-3-carboxamide hydrochloride]	> 5000	> 5000
COc1cc(C(=O)N(C)CCO)cnc1-c1cc2ncc(Cl)c(-c3ccc(OC4CCOCC4)c(C#N)c3)c2o1 [Compound 342, 6-[6-chloro-7-[3-cyano-4-(oxan-4-yloxy)phenyl]furo[3,2-b]pyridin-2-yl]-N-(2-hydroxyethyl)-5-methoxy-N-methylpyridine-3-carboxamide hydrochloride]	1000 to 5000	1000 to 5000
COc1cc(C(=O)N(C)CCO)cnc1-c1cc2ncc(OC)c(-c3ccc(OC4CCOCC4)c(C#N)c3)c2o1 [Compound 343, 6-[7-[3-cyano-4-(oxan-4-yloxy)phenyl]-6-methoxyfuro[3,2-b]pyridin-2-yl]-N-(2-hydroxyethyl)-5-methoxy-N-methylpyridine-3-carboxamide]	100 to 1000	100 to 1000
COc1cc(C(=O)N(C)C)cnc1-c1cc2ncc(F)c(-c3ccc(OC4CCOCC4)c(C#N)n3)c2o1 [Compound 351, 6-[7-[6-cyano-5-(oxan-4-yloxy)pyridin-2-yl]-6-fluorofuro[3,2-b]pyridin-2-yl]-5-methoxy-N,N-dimethylpyridine-3-carboxamide hydrochloride]	100 to 1000	100 to 1000
COc1cc(C(=O)N(C)CCO)cnc1-c1cc2ncc(F)c(-c3ccc(OC4CCOCC4)c(C#N)n3)c2o1 [Compound 354, 6-[7-[6-cyano-5-(oxan-4-yloxy)pyridin-2-yl]-6-fluorofuro[3,2-b]pyridin-2-yl]-N-(2-hydroxyethyl)-5-methoxy-N-methylpyridine-3-carboxamide hydrochloride]	100 to 1000	1000 to 5000
COc1cc(C(=O)N(C)C)cnc1-c1cc2ncc(C3CC3)c(-c3ccc(OC4CCOCC4)c(C#N)n3)c2o1 [Compound 357, 6-[7-[6-cyano-5-(oxan-4-yloxy)pyridin-2-yl]-6-cyclopropylfuro[3,2-b]pyridin-2-yl]-5-methoxy-N,N-dimethylpyridine-3-carboxamide hydrochloride]	> 5000	> 5000
COc1cc(C(=O)N(C)C)cnc1-c1cc2ncc(OC)c(-c3ccc(NC4CCOCC4)c(C#N)n3)c2o1 [Compound 358, 6-(7-[6-cyano-5-[(oxan-4-yl)amino]pyridin-2-yl]-6-methoxyfuro[3,2-b]pyridin-2-yl)-5-methoxy-N,N-dimethylpyridine-3-carboxamide]	1000 to 5000	1000 to 5000
COc1cc(C(=O)N(C)CCO)cnc1-c1cc2ncc(C)c(-c3ccc(OC4CCOCC4)c(C#N)n3)c2o1 [Compound 360, 6-[7-[6-cyano-5-(oxan-4-yloxy)pyridin-2-yl]-6-methylfuro[3,2-b]pyridin-2-yl]-N-(2-hydroxyethyl)-5-methoxy-N-methylpyridine-3-carboxamide hydrochloride]	100 to 1000	100 to 1000
COc1cc(C(=O)N(C)CCO)cnc1-c1cc2ncc(OC)c(-c3ccc(OC4CCOCC4)c(C#N)n3)c2o1 [Compound 362, 6-[7-[6-cyano-5-(oxan-4-yloxy)pyridin-2-yl]-6-methoxyfuro[3,2-b]pyridin-2-yl]-N-(2-hydroxyethyl)-5-methoxy-N-methylpyridine-3-carboxamide]	100 to 1000	100 to 1000
COc1cc(C(=O)N(C)CCO)cnc1-c1cc2ncc(C3CC3)c(-c3ccc(OC4CCOCC4)c(C#N)n3)c2o1 [Compound 363, 6-[7-[6-cyano-5-(oxan-4-yloxy)pyridin-2-yl]-6-cyclopropylfuro[3,2-b]pyridin-2-yl]-N-(2-hydroxyethyl)-5-methoxy-N-methylpyridine-3-carboxamide hydrochloride]	> 5000	> 5000
COc1cc(C(=O)N(C)CCO)ncc1-c1cc2nccc(-c3cc(C#N)c(OC4CCOCC4)cn3)c2o1 [Compound 377, 5-[7-[4-cyano-5-(oxan-4-yloxy)pyridin-2-pyridin-2-yl]furo[3,2-b]pyridin-2-yl]-N-(2-hydroxyethyl)-4-methoxy-N-methylpyridine-2-carboxamide]	100 to 1000	100 to 1000
COc1cc(C(=O)N2CCCCC2)ncc1-c1cc2nccc(-c3cc(C#N)c(OC4CCOCC4)cn3)c2o1 [Compound 383, 2-(2-[4-methoxy-6-[(piperidin-1-yl)carbonyl]pyridin-3-yl]furo[3,2-b]pyridin-7-yl)-5-(oxan-4-yloxy)pyridine-4-carbonitrile]	100 to 1000	100 to 1000
COc1cc(C(=O)N(C)C)ncc1-c1cc2nccc(-c3cc(C#N)c(OC4CCOCC4)cn3)c2o1 [Compound 386, 5-[7-[4-cyano-5-(oxan-4-yloxy)pyridin-2-yl]furo[3,2-b]pyridin-2-yl]-4-methoxy-N,N-dimethylpyridine-2-carboxamide]	100 to 1000	100 to 1000
COc1cc(-c2cc3nccc(-c4ccc(NC5CCOCC5)c(C#N)c4)c3o2)ncc1C(=O)N(C)C [Compound 392, 6-(7-[3-cyano-4-[(oxan-4-yl)amino]phenyl]furo[3,2-b]pyridin-2-yl)-4-methoxy-N,N-dimethylpyridine-3-carboxamide]	100 to 1000	100 to 1000
COc1cc(C(=O)N(C)C)cnc1-c1cc2nccc(-c3ncc(OC4CCOCC4)c(C#N)n3)c2o1 [Compound 396, 6-[7-[4-cyano-5-(oxan-4-yloxy)pyrimidin-2-yl]furo[3,2-b]pyridin-2-yl]-5-methoxy-N,N-dimethylpyridine-3-carboxamide]	100 to 1000	100 to 1000
COc1cc(C(=O)N(C)C)ccc1-c1cc2nccc(Nc3ccc(OC4CCOCC4)c(C#N)c3)c2o1 [Compound 399, 4-(7-[[3-cyano-4-(oxan-4-yloxy)phenyl]amino]furo[3,2-b]pyridin-2-yl)-3-methoxy-N,N-dimethylbenzamide]	> 5000	> 5000
COc1cc(C(=O)N2CC3COCC3C2)ncc1-c1cc2nccc(-c3ccc(NC4CCOCC4)c(C#N)c3)c2o1 (stereo not shown) [Compound 421, 5-[2-[6-([hexahydro-1H-furo[3,4-c]pyrrol-5-yl]carbonyl)-4-methoxypyridin-3-yl]furo[3,2-b]pyridin-7-yl]-2-[(oxan-4-yl)amino]benzonitrile]	< 100	< 100
COc1cc(C(=O)N2CC3CN(C)CC3C2)ncc1-c1cc2nccc(-c3ccc(N4CC[C@@H](F)C4)c(C#N)c3)c2o1 (stereo partly drawn) [Compound 453, 2-[(3R)-3-fluoropyrrolidin-1-yl]-5-[2-[4-methoxy-6-([5-methyl-octahydropyrrolo[3,4-c]pyrrol-2-yl]carbonyl)pyridin-3-yl]furo[3,2-b]pyridin-7-yl]benzonitrile]	< 100	< 100
COc1cc(C(=O)NC2C3COCC32)ncc1-c1cc2nccc(-c3ccc(N4CC[C@@H](F)C4)c(C#N)c3)c2o1 (stereo partly drawn) [Compound 469, 5-(7-[3-cyano-4-[(3R)-3-fluoropyrrolidin-1-yl]phenyl]furo[3,2-b]pyridin-2-yl)-4-methoxy-N-[3-oxabicyclo[3.1.0]hexan-6-yl]pyridine-2-carboxamide]	< 100	< 100
